Assays:
[1] = system: Jurkat cells; assay: IL-2 secretion assay in CD3/CD28-activated Jurkat cells (AlphaLISA); assay type: cell-based; settings: Homo sapiens, CD3/CD28 T Cell Activator, 24 h, IL-2 AlphaLISA
Description: Certain compounds were also evaluated in an IL-2 secretion assay. On the day of the assay, a 16 point, 1:2 master serial dilution of each compound was prepared in Opti-MEM to span a final concentration range of 10 μM to 300 pM. Assays were set up in CORNING® tissue culture-treated 384-well microplates containing 60 nL of each dilution. […] 50,000 cells/well and added to the compound plates. After a short spin (1200 rpm for 1 min), the plates were incubated at 37° C. for 1 hour. The cells were activated by adding 15 μL of IMMUNOCULT™ Human CD3/CD28 T Cell Activator ([…] Technologies) diluted in Opti-MEM. […] The AiphaLISA signal was measured using an EnVision plate reader (PerkinElmer). EC50 values were determined by fitting the data to a standard 4-parameter logistic equation.

[2] = target: T1, Cbl-b (Homo sapiens, UniProt Q13191); assay: Cbl-b probe displacement HTRF binding assay; settings: 0.4 nM biotinylated Cbl-b, 150 nM BODIPY probe
T1 construct: biotin (biotinylated)
T1 sequence (Q13191 whole entry, species assumed): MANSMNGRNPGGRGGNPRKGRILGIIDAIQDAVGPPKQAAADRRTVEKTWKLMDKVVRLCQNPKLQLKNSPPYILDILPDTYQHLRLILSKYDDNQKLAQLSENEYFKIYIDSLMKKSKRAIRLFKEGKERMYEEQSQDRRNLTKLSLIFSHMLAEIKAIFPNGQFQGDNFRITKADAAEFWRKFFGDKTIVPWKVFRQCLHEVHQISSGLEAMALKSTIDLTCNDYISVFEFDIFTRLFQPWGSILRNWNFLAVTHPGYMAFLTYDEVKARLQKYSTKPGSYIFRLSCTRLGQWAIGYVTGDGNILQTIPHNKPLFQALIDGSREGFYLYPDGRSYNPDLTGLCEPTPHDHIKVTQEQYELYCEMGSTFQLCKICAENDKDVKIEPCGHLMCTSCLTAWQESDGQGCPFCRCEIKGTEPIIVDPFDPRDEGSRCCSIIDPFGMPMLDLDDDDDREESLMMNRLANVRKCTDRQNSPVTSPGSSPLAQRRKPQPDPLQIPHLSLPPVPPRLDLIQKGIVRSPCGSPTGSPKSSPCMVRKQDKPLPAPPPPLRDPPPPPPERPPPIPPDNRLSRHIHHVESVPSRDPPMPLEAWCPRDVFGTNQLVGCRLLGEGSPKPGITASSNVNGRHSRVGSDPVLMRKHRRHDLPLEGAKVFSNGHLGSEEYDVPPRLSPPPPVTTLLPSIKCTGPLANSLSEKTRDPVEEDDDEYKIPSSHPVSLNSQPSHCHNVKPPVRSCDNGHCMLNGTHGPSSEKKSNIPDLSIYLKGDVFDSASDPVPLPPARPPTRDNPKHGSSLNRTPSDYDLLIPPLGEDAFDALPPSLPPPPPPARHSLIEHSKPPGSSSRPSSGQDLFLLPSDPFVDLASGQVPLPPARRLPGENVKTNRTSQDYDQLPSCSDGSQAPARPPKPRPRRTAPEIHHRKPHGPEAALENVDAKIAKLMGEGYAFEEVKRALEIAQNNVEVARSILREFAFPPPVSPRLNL
Method in brief: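 Biotinylated Cbl-b was preincubated with compound for 60 min at room temperature in HEPES/NaCl/Triton/TCEP/BSA buffer. BODIPY probe was added for 15 min, followed by streptavidin-terbium, and the HTRF signal was read. Displacement was normalised to DMSO and no-protein controls, and affinity was obtained from a four-parameter dose-response fit.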

| Structure (SMILES) | EC50 [1] [nM] | IC50 [2] [nM] |
| --- | --- | --- |
| Cn1cnnc1[C@]1(c2cccc(-n3cc(C(F)(F)F)c4cn[nH]c4c3=O)c2)C[C@H](C)C1 [Example 140, 6-{3-[(1R,3S)-3-Methyl-1-(4-methyl-4H-1,2,4-triazol-3-yl)cyclobutyl]phenyl}-4-(trifluoromethyl)-1H,6H,7H-pyrazolo[3,4-c]pyridin-7-one] | 100 to 1000 | < 100 |
| C[C@H]1CCCN(Cc2cc3c(C4CC4)cn(-c4cccc(C5(Cc6nncn6C)COC5)c4)c(=O)c3[nH]2)C1 [Example 75, 4-cyclopropyl-2-[[(3S)-3-methylpiperidin-1-yl]methyl]-6-[3-[3-[(4-methyl-1,2,4-triazol-3-yl)methyl]oxetan-3-yl]phenyl]-1H-pyrrolo[2,3-c]pyridin-7-one] | < 100 | < 100 |
| Cn1cnnc1[C@]1(c2cccc(-n3cc(C4CC4)c4[nH]c(=O)[nH]c4c3=O)c2)C[C@@H](C)C1 (single isomer, unassigned) [Example 118, 7-cyclopropyl-5-[3-[trans-3-methyl-1-(4-methyl-1,2,4-triazol-3-yl)cyclobutyl]phenyl]-1,3-dihydroimidazo[4,5-c]pyridine-2,4-dione] | > 5000 | 100 to 1000 |
| CC1CC(c2cccc(-n3cc(C4CC4)c4cc(CN5CCCC(F)(F)C5)[nH]c4c3=O)c2)(c2nncn2C)C1 (stereo not drawn) [Example 66, 4-cyclopropyl-2-[(3,3-difluoropiperidin-1-yl)methyl]-6-{3-[(1r)-3-methyl-1-(4-methyl-4H-1,2,4-triazol-3-yl)cyclobutyl]phenyl}-1H,6H,7H-pyrrolo[2,3-c]pyridin-7-one] | 1000 to 5000 | 100 to 1000 |
| Cn1cnnc1C1(c2cccc(-n3cc(C4CC4)c4cc(CN[C@@H]5CCCS(=O)(=O)C5)[nH]c4c3=O)c2)CC(F)(F)C1 [Example 87, (3R)-3-{[(4-cyclopropyl-6-{3-[3,3-difluoro-1-(4-methyl-4H-1,2,4-triazol-3-yl)cyclobutyl]phenyl}-7-oxo-1H,6H,7H-pyrrolo[2,3-c]pyridin-2-yl)methyl]amino}-1λ^6-thiane-1,1-dione] | > 5000 | 100 to 1000 |
| CC(C)n1cnnc1C1(c2cccc(-n3cc(C4CC4)c4cc(CN5CCC[C@H](C)C5)[nH]c4c3=O)c2)CC2(CC2)C1 [Example 145, 4-Cyclopropyl-2-[[(3S)-3-methylpiperidin-1-yl]methyl]-6-[3-[5-(4-propan-2-yl-1,2,4-triazol-3-yl)spiro[2.3]hexan-5-yl]phenyl]-1H-pyrrolo[2,3-c]pyridin-7-one] | 1000 to 5000 | < 100 |
| C[C@H]1CCCN(Cc2cc3c(C4CC4)cn(-c4cccc(C5(c6nncn6CC(F)F)CC6(CC6)C5)c4)c(=O)c3[nH]2)C1 [Example 146, 4-Cyclopropyl-6-[3-[5-[4-(2,2-difluoroethyl)-1,2,4-triazol-3-yl]spiro[2.3]hexan-5-yl]phenyl]-2-[[(3S)-3-methylpiperidin-1-yl]methyl]-1H-pyrrolo[2,3-c]pyridin-7-one] | 100 to 1000 | < 100 |
| Cn1cnnc1[C@]1(c2cccc(-n3cc(C4CC4)c4c(C#N)c[nH]c4c3=O)c2)C[C@H](C)C1 (single isomer, unassigned) [Example 14, 4-Cyclopropyl-7-oxo-6-{3-[(1r,3s)-3-methyl-1-(4-methyl-4H-1,2,4-triazol-3-yl)cyclobutyl]phenyl}-1H,6H,7H-pyrrolo[2,3-c]pyridine-3-carbonitrile] | 100 to 1000 | < 100 |
| Cn1cncc1-c1c[nH]c2c(=O)n(-c3cccc([C@]4(c5nncn5C)C[C@@H](C)C4)c3)cc(C3CC3)c12 (single isomer, unassigned) [Example 34] | 1000 to 5000 | < 100 |
| C[C@@H]1CN(Cc2cc3c(C4CC4)cn(-c4cccc(C5(c6nncn6C)CC(F)(F)C5)c4)c(=O)c3[nH]2)CCO1 [Example 94, 4-cyclopropyl-6-[3-[3,3-difluoro-1-(4-methyl-1,2,4-triazol-3-yl)cyclobutyl]phenyl]-2-[[(2R)-2-methylmorpholin-4-yl]methyl]-1H-pyrrolo[2,3-c]pyridin-7-one] | < 100 | < 100 |
| Cn1cnnc1C1(c2cccc(-n3cc(C4CC4)c4cc(CN5CCC6(CC6)C5)[nH]c4c3=O)c2)CC(F)(F)C1 [Example 88, 2-({5-azaspiro[2.4]heptan-5-yl}methyl)-4-cyclopropyl-6-{3-[3,3-difluoro-1-(4-methyl-4H-1,2,4-triazol-3-yl)cyclobutyl]phenyl}-1H,6H,7H-pyrrolo[2,3-c]pyridin-7-one] | < 100 | < 100 |
| Cn1cnnc1C1(c2cccc(-n3cc(C4CC4)c4cc(CN5CCC6(CC6)C5)[nH]c4c3=O)c2)CC2(CC2)C1 [Example 70, 2-({5-azaspiro[2.4]heptan-5-yl}methyl)-4-cyclopropyl-6-{3-[5-(4-methyl-4H-1,2,4-triazol-3-yl)spiro[2.3]hexan-5-yl]phenyl}-1H,6H,7H-pyrrolo[2,3-c]pyridin-7-one] | 100 to 1000 | < 100 |
| C[C@H]1CCCN(Cc2cc3ncn(-c4cccc(C5(c6nncn6C)CC(F)(F)C5)c4)c(=O)c3[nH]2)C1 [Example 120, 3-{3-[3,3-Difluoro-1-(4-methyl-4H-1,2,4-triazol-3-yl)cyclobutyl]phenyl}-6-{[(3S)-3-methylpiperidin-1-yl]methyl}-3H,4H,5H-pyrrolo[3,2-d]pyrimidin-4-one] | 100 to 1000 | < 100 |
| C[C@H]1CCCN(Cc2nc3c(C(F)(F)F)cn(-c4cccc(C5(c6nncn6C)CC(F)(F)C5)c4)c(=O)c3[nH]2)C1 [Example 113, 5-[3-[3,3-difluoro-1-(4-methyl-1,2,4-triazol-3-yl)cyclobutyl]phenyl]-2-[[(3S)-3-methylpiperidin-1-yl]methyl]-7-(trifluoromethyl)-3H-imidazo[4,5-c]pyridin-4-one] | < 100 | < 100 |
| COC(C)(c1cccc(-n2cc(C3CC3)c3cc(CN4CCC[C@H](C)C4)[nH]c3c2=O)c1)c1nncn1C (stereo partly drawn) [Example 159, 4-cyclopropyl-6-[3-[1-methoxy-1-(4-methyl-1,2,4-triazol-3-yl)ethyl]phenyl]-2-[[(3S)-3-methylpiperidin-1-yl]methyl]-1H-pyrrolo[2,3-c]pyridin-7-one] | 100 to 1000 | 100 to 1000 |
| Cn1cnnc1[C@]1(c2cccc(-n3cc(C4CC4)c4cn[nH]c4c3=O)c2)C[C@H](C)C1 [Example 7, 4-cyclopropyl-6-{3-[(1r,3s)-3-methyl-1-(4-methyl-4H-1,2,4-triazol-3-yl)cyclobutyl]phenyl}-1H,6H,7H-pyrazolo[3,4-c]pyridin-7-one] | 1000 to 5000 | < 100 |
| C[C@H]1CCCN(Cc2nc3c(C4CC4)cn(-c4cccc([C@]5(c6nncn6C)C[C@H](C)C5)c4)c(=O)c3[nH]2)C1 [Example 109, 7-cyclopropyl-5-[3-[3-methyl-1-(4-methyl-1,2,4-triazol-3-yl)cyclobutyl]phenyl]-2-[[(3S)-3-methylpiperidin-1-yl]methyl]-3H-imidazo[4,5-c]pyridin-4-one] | < 100 | < 100 |
| C[C@H]1CCCN(Cc2cc3c(C4CC4)cn(-c4cccc(C(O)(c5nncn5C)C5CCC5)c4)c(=O)c3[nH]2)C1 (stereo partly drawn) [Example 155, 6-[3-[cyclobutyl-hydroxy-(4-methyl-1,2,4-triazol-3-yl)methyl]phenyl]-4-cyclopropyl-2-[[(3S)-3-methylpiperidin-1-yl]methyl]-1H-pyrrolo[2,3-c]pyridin-7-one] | 100 to 1000 | < 100 |

Source: US20260028336A1 (Arcus Biosciences, Inc., priority 2022, published 2026)
